According to paper PMC10709440, “High-throughput ligand profile characterization in novel cell lines expressing seven heterologous insect olfactory receptors for the detection of volatile plant biomarkers” (Scientific Reports, 2023):
Read-outs that look alike come from different tables or passages of the source.

How the values were obtained:
OR10a = system: OR10a; set-up: method as in earlier work; conditions: DoOR database value, ref DoOR, cited from earlier work
Drosophila OR98a = target: T1, Drosophila OR98a (Drosophila melanogaster, UniProt Q9VAZ3); assay: Calcium ion fluorescence (GCaMP6) assay, OR98a stable HEK293 cell line; format: cell-based; conditions: for OR98a response (VUAA1-normalized) at 1 μM / OR98a response (VUAA1-normalized) at 10 μM / OR98a response (VUAA1-normalized) at 100 μM / Average response: OR98a cell line; for Average response: average of biological replicates, fraction of VUAA1 response
T1 construct: expressed in transfected cells
T1 sequence (Q9VAZ3 1-397): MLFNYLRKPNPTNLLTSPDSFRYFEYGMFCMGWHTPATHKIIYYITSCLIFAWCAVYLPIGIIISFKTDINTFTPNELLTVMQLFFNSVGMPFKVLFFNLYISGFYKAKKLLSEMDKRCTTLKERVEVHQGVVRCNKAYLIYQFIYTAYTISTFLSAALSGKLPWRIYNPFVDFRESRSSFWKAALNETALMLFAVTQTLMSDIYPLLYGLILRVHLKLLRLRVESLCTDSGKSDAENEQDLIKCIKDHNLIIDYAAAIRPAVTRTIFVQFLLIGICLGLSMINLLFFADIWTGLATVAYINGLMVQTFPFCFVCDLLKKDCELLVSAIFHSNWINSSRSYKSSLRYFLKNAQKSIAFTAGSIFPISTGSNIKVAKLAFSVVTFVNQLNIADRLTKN
T1 sequence (Q9VNB5 1-486 partner): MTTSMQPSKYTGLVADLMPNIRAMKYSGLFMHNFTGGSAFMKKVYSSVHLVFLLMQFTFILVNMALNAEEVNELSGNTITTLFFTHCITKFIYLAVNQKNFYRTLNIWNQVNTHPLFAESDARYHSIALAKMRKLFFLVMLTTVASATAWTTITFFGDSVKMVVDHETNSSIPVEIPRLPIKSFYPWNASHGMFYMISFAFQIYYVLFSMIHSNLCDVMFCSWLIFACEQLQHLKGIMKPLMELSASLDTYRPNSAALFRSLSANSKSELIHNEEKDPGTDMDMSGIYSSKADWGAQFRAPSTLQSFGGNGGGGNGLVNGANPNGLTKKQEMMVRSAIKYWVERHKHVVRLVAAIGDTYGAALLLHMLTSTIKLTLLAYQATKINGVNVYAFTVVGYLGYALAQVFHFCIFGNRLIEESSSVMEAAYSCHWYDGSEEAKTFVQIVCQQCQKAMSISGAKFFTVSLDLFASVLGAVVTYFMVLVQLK
Protocol: These VUAA1 normalized ∆F values were used to compare the different receptors and ligands.
The concentration-dependent effect of the reference ligands on their cognate cell lines was examined in more detail. Twelve different ligand concentrations were measured on each cell line in an overall 0.01 μM to 100 μM concentration range with 5 repetitions with three technical replicates each time.
Twelve thousand to 18,000 cells were plated into each well of a black wall, transparent bottom 384-well microplate (Greiner) 48 h or 72 h before the measurements and were simultaneously treated with 1 μg/mL doxycycline. […] The plate has 24 columns, thus we could record responses in up to eight different cell lines in each plate. On the day of the experiment, the growth medium was replaced with 20 µL assay buffer/well (140 mM NaCl, 5 mM KCl, 2 mM CaCl2, 1 mM MgCl2, 5 mM HEPES-Na, 20 mM glucose, pH 7.3, 340 mOsm). […] Baseline fluorescence (F0) was recorded for 5 s, after which 7 µL VOC buffer (140 mM NaCl, 5 mM KCl, 2 mM CaCl2, 1 mM MgCl2, 5 mM HEPES-Na, 31 mM glucose, 0.1% DMSO, pH 7.3, 340 mOsm) was injected into each well in one row and the fluorescence response was recorded for an additional 30 s, at a rate of one read/sec. VOC solutions (VOC buffer with 4× concentration of the final measured VOC concentration, 9 µL/well was injected) were measured on the same wells in a second round with the same protocol. Each individual concentration of a specific VOC sample was recorded in three wells for the same cell line on the same microplate. The raw data were exported in xls file format, F0 and FMAX values, and the fluorescence intensity changes (∆F) were calculated in Excel (Microsoft) (Supplementary file Data summary.xlsx) using the following equation: ΔF=FMAX-F0/F0 (see also Fig. 1C). On each plate, we recorded the response of each cell line to 50 µM VUAA1. The average of these ∆F values of each cell line were used to calculate the VUAA1-normalized values for the rest of the plate, by dividing VOC response ∆F values by the average VUAA1 response ∆F value of the corresponding OR cell line. Each VOC-OR combination was measured three times as technical replicates. […] The average of these replicates were used as one ∆F and VUAA1-normalized ∆F in the following analysis.
In the next rows we tested the reference VOCs (or other VOCs known to activate the corresponding cell lines), in order to test if all cell lines are responsive. The remaining rows were used to test VOCs with unknown effect.
The recorded FMAX, F0, ∆F, VUAA1-normalized ∆F values, as well as the OR name, the name of the tested sample, and the final concentration for each well were copied into supplementary file Data summary.xlsx, that was used to summarize all the plates recorded. Here, the averages of the measurements were calculated for each receptor-VOC-concentration combination.

OR13a = system: OR13a; set-up: method as in earlier work; conditions: DoOR database value, ref DoOR, cited from earlier work
OR98a = system: OR98a; set-up: method as in earlier work; conditions: DoOR database value, ref DoOR, cited from earlier work
OR85b = system: OR85b; set-up: method as in earlier work; conditions: DoOR database value, ref DoOR, cited from earlier work
OR47a = system: OR47a; set-up: method as in earlier work; conditions: DoOR database value, ref DoOR, cited from earlier work
OR49b = system: OR49b; set-up: method as in earlier work; conditions: DoOR database value, ref DoOR, cited from earlier work
[1] = HEK293, read-out: Average response
[2] = HEK293, read-out: OR98a Average response (VUAA1-normalized)
[3] = HEK293, read-out: OR98a response (VUAA1-normalized response)
[4] = concentration 1, normalized fluorescence change, values below 0.05 threshold given as 0
[5] = concentration 10, normalized fluorescence change, values below 0.05 threshold given as 0
[6] = concentration 100, normalized fluorescence change, values below 0.05 threshold given as 0
[7] = ligand concentration 1 (unit not given), threshold 0.05, below shown as 0
[8] = ligand concentration 10 (unit not given), threshold 0.05, below shown as 0
[9] = ligand concentration 100 (unit not given), threshold 0.05, below shown as 0

| SMILES | OR10a DoOR response (OR10a) | activation at 1 µM (Drosophila OR98a; [1]) | activation at 10 µM (Drosophila OR98a; [1]) | activation at 100 µM (Drosophila OR98a; [1]) | activation at 1 µM (Drosophila OR98a; [3]) | activation at 10 µM (Drosophila OR98a; [3]) | activation at 100 µM (Drosophila OR98a; [3]) | OR98a DoOR response (OR98a) | OR85b DoOR response (OR85b) | OR47a DoOR response (OR47a) | DF norm AVERAGE OR98a (Drosophila OR98a; [7]) | DF norm AVERAGE OR98a (Drosophila OR98a; [8]) | DF norm AVERAGE OR98a (Drosophila OR98a; [9]) | OR49b DoOR response (OR49b) | further results |
| --- | --- | --- | --- | --- | --- | --- | --- | --- | --- | --- | --- | --- | --- | --- | --- |
| CCCCCC(C)O (stereo not shown) [2-heptanol] | 0.009 | 3.25% | 3.67% | 16% | 0% | 0% | 16% |  |  |  |  |  |  |  | activation at 1 µM (Drosophila OR98a; [2]): 3%; activation at 10 µM (Drosophila OR98a; [2]): 4%; activation at 100 µM (Drosophila OR98a; [2]): 16%; DF norm AVERAGE OR98a (Drosophila OR98a; [4]): 0; DF norm AVERAGE OR98a (Drosophila OR98a; [5]): 0; DF norm AVERAGE OR98a (Drosophila OR98a; [6]): 0.1574; OR13a DoOR response (OR13a): 0.67 |
| CC/C=C\CCOC(C)=O [Z-3-hexenyl acetate] |  |  |  |  |  |  |  |  |  |  |  |  |  |  | OR10a DoOR response (OR10a; OR10a): 0.004; OR98a response (VUAA1-normalized) at 1 μM (Drosophila OR98a; VOC concentration 1 μM): 0.00; OR98a response (VUAA1-normalized) at 10 μM (Drosophila OR98a; VOC concentration 10 μM): 0.00; OR98a response (VUAA1-normalized) at 100 μM (Drosophila OR98a; VOC concentration 100 μM): 0.10; OR13a DoOR response (OR13a; OR13a): 0.42 |
| C=C1CCC2CC1C2(C)C (stereo not drawn) [beta-pinene] | -0.005 | 19% | 17% | 1.89% | 19% | 17% | 0% | -0.003 | 0.053 | -0.021 | 0.1942 | 0.1655 | 0 | 0.011 |  |
| CCCCC(C)O (stereo not shown) [2-hexanol] | 0.14 | 0% | 0% | 14% | 0% | 0% | 14% |  |  |  |  |  |  |  | activation at 1 µM (Drosophila OR98a; [2]): 0%; activation at 10 µM (Drosophila OR98a; [2]): 0%; activation at 100 µM (Drosophila OR98a; [2]): 14%; DF norm AVERAGE OR98a (Drosophila OR98a; [4]): 0; DF norm AVERAGE OR98a (Drosophila OR98a; [5]): 0; DF norm AVERAGE OR98a (Drosophila OR98a; [6]): 0.1401; OR13a DoOR response (OR13a): 0.58 |
| CC(=O)OCC(C)C [isobutyl acetate] | 0.35 | 1.85% | 0% | 6.56% | 0% | 0% | 6.56% | 0.67 | 0.39 | 0.58 | 0 | 0 | 0.0656 | 0.006 |  |
| Cc1ccc(C(C)C)cc1 [p-cymene] |  | 0% | 4% | 3.65% |  |  |  |  |  |  | 0 | 0 | 0 |  | OR98a DoOR response (OR98a; OR98a): -0.012; OR85b DoOR response (OR85b; OR85b): -0.004; OR47a DoOR response (OR47a; OR47a): 0.018; OR10a DoOR response (OR10a; OR10a): -0.003; OR98a response (VUAA1-normalized) at 1 μM (Drosophila OR98a; VOC concentration 1 μM): 0.00; OR98a response (VUAA1-normalized) at 10 μM (Drosophila OR98a; VOC concentration 10 μM): 0.00; OR98a response (VUAA1-normalized) at 100 μM (Drosophila OR98a; VOC concentration 100 μM): 0.00; OR49b DoOR response (OR49b; OR49b): 0.014 |
| CC/C=C\CCO [E-3-hexenol] | 0.04 |  |  |  |  |  |  | 0.44 | 0.75 | 0.065 |  |  |  | 0.057 | OR98a response (VUAA1-normalized response) (Drosophila OR98a; VOC concentration 1 μM): 0.00; OR98a response (VUAA1-normalized response) (Drosophila OR98a; VOC concentration 10 μM): 0.00; OR98a response (VUAA1-normalized response) (Drosophila OR98a; VOC concentration 100 μM): 0.00 |
| CCCCCC(=O)OCC [ethyl hexanoate] | -0.012 | 5% | 12% | 3.29% | 0% | 12% | 0% | 0.17 | 0.24 | 0.42 | 0 | 0.1164 | 0 | 0.007 |  |
| C=C(C)[C@H]1CC=C(C)CC1 [limonene] | -0.001 |  |  |  |  |  |  | 0.09 | 0.10 | 0.056 | 0 | 0 | 0 | 0.016 | OR98a response (VUAA1-normalized response) (Drosophila OR98a; VOC concentration 1 μM): 0.00; OR98a response (VUAA1-normalized response) (Drosophila OR98a; VOC concentration 10 μM): 0.00; OR98a response (VUAA1-normalized response) (Drosophila OR98a; VOC concentration 100 μM): 0.00; Average response (Drosophila OR98a; cc. 1 µM): 0.00; Average response (Drosophila OR98a; cc. 10 µM): 0.02; Average response (Drosophila OR98a; cc. 100 µM): 0.0268 |
| COC(=O)c1ccccc1 [methyl benzoate] |  | 7.5% | 0% | 12% |  |  |  |  |  |  | 0.07495 | 0 | 0.1166 |  | OR98a DoOR response (OR98a; OR98a): 0.70; OR85b DoOR response (OR85b; OR85b): 0.036; OR47a DoOR response (OR47a; OR47a): 0.09; OR10a DoOR response (OR10a; OR10a): 0.63; activation at 1 µM (Drosophila OR98a; [2]): 7%; activation at 10 µM (Drosophila OR98a; [2]): 0%; activation at 100 µM (Drosophila OR98a; [2]): 12%; OR98a response (VUAA1-normalized) at 1 μM (Drosophila OR98a; VOC concentration 1 μM): 0.075; OR98a response (VUAA1-normalized) at 10 μM (Drosophila OR98a; VOC concentration 10 μM): 0.00; OR98a response (VUAA1-normalized) at 100 μM (Drosophila OR98a; VOC concentration 100 μM): 0.12; OR49b DoOR response (OR49b; OR49b): 0.035 |
| CC1=CCC2C(C1)C2(C)C (stereo not shown) [3-carene] | -0.005 | 0% | 1.26% | 0% | 0% | 0% | 0% | -0.009 | -0.008 | -0.002 |  |  |  | 0.002 | DF norm AVERAGE OR98a (Drosophila OR98a; [4]): 0; DF norm AVERAGE OR98a (Drosophila OR98a; [5]): 0; DF norm AVERAGE OR98a (Drosophila OR98a; [6]): 0 |
